Where two headings read alike, the source gives them in different places.
Experiments:
IRAK4 enzyme = IRAK4 enzyme (Homo sapiens (Human), UniProt Q9NWZ3); assay: biochemical; format: biochemical; conditions: IRAK4 enzyme, 500 μM ATP
TNFα = assay: cells; format: cell-based, human; conditions: LPS-stimulated human monocytes, read-out: EC50 TNF
[1] = Homo sapiens, Monocyte, TNFα content
[2] = Homo sapiens, Monocyte, TNFα by TR-FRET

Chain of IRAK4 enzyme (Q9NWZ3 whole entry): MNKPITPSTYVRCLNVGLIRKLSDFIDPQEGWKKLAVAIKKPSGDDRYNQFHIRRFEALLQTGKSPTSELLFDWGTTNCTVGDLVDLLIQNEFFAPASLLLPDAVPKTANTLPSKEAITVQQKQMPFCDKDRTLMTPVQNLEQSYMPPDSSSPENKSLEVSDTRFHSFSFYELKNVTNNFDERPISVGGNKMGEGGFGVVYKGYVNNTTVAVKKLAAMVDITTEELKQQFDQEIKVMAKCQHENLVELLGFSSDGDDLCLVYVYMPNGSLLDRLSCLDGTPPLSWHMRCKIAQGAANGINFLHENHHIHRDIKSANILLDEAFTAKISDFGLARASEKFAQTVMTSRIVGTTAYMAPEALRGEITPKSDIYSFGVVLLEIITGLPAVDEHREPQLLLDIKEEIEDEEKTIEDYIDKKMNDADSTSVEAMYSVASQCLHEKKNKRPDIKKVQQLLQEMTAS

Row | SMILES | IC50 (IRAK4 enzyme; TR-FRET) [nM] | EC50 (TNFα; [1]) [nM] | also measured
1 | Cc1nnc(N[C@H]2CC[C@H](Nc3cc(-c4ccc5cc(C#N)cnn45)ncc3C(=O)NC[C@@H](F)C(C)(C)O)CC2)o1 [Example 269, 6-(3-cyanopyrrolo[1,2-b]pyridazin-7-yl)-N-((R)-2-fluoro-3-hydroxy-3-methylbutyl)-4-(((1R,4R)-4-((5-methyl-1,3,4-oxadiazol-2-yl)amino)cyclohexyl)amino)nicotinamide] | 1 | 59 | 
2 | CC(C)Nc1cc(-c2ccc3cc(C#N)cnn23)ncc1C(=O)N[C@H]1CCC[C@H](O)C1 [Example 191, 6-(3-cyanopyrrolo[1,2-b]pyridazin-7-yl)-N-((1S,3S)-3-hydroxycyclohexyl)-4-(isopropylamino) nicotinamide] | 4 | 128 | 
3 | CC(C)(O)[C@H](F)CNC(=O)c1cnc(-c2ccc3cc(C#N)cnn23)cc1N[C@@H]1CCC[C@@H](O)C1 [Example 61, 6-(3-cyanopyrrolo[1,2-b]pyridazin-7-yl)-N-((R)-2-fluoro-3-hydroxy-3-methylbutyl)-4-(((1R,3R)-3-hydroxycyclohexyl)amino) nicotinamide] | < 1 | 89 | 
4 | CN(C)C(=O)C(F)(F)CNC(=O)c1cnc(-c2ccc3cc(C(N)=O)cnn23)cc1NC12CCC(O)(CC1)CC2 [Example 962, 7-(5-((3-(dimethylamino)-2,2-difluoro-3-oxopropyl)carbamoyl)-4-((4-hydroxybicyclo[2.2.2]octan-1-yl)amino)pyridin-2-yl)pyrrolo[1,2-b]pyridazine-3-carboxamide] | 650 |  | EC50 (TNFα; [2]): > 10000 nM
5 | CC(C)(C)OC(=O)NCC12CC(Nc3cc(-c4ccc5cc(C#N)cnn45)ncc3C(=O)NC[C@@H](F)C(C)(C)O)(C1)C2 [Example 550, (R)-tert-butyl ((3-((2-(3-cyanopyrrolo[1,2-b]pyridazin-7-yl)-5-((2-fluoro-3-hydroxy-3-methylbutyl)carbamoyl)pyridin-4-yl)amino)bicyclo[1.1.1]pentan-1-yl)methyl)carbamate] |  | 364 | IC50 (IRAK4 enzyme; TR-FRET (HTRF)): 2 nM
6 | CNC(=O)c1cnc(-c2ccc3cc(C#N)cnn23)cc1N[C@H]1CC[C@H](NC(=O)OC)CC1 [Example 274, methyl ((1r,4r)-4-((2-(3-cyanopyrrolo[1,2-b]pyridazin-7-yl)-5-(methylcarbamoyl)pyridin-4-yl)amino)cyclohexyl)carbamate] | 1 | 144 | 
7 | CC(=O)N1CCC[C@@H](Nc2cc(-c3ccc4cc(C#N)cnn34)ncc2C(=O)NC[C@@H](F)C(C)(C)O)C1 [Example 253, 4-(((R)-1-acetylpiperidin-3-yl)amino)-6-(3-cyano-pyrrolo[1,2-b]pyridazin-7-yl)-N-((R)-2-fluoro-3-hydroxy-3-methylbutyl)nicotinamide] | 3 | 510 | 
8 | CN(C)C(=O)O[C@H]1CC[C@H](Nc2cc(-c3ccc4cc(C#N)cnn34)ncc2C(=O)NC[C@@H](F)C(C)(C)O)CC1 [Example 164, (1R,4r)-4-((2-(3-cyano-pyrrolo[1,2-b]pyridazin-7-yl)-5-(((R)-2-fluoro-3-hydroxy-3-methylbutyl)carbamoyl)pyridin-4-yl)amino)cyclohexyl dimethylcarbamate] | 132 | 9940 | 
9 | CC(C)(O)[C@H](F)CNC(=O)c1cnc(-c2ccc3cc(C#N)cnn23)cc1Nc1cnc(N)nc1 [Example 658, (R)-4-((2-aminopyrimidin-5-yl)amino)-6-(3-cyano-pyrrolo[1,2-b]pyridazin-7-yl)-N-(2-fluoro-3-hydroxy-3-methylbutyl)nicotinamide] |  | 37 | IC50 (IRAK4 enzyme; TR-FRET (HTRF)): < 1 nM
10 | CC(C)(O)[C@H](F)CNC(=O)c1cnc(-c2ccc3cc(C#N)cnn23)cc1NC12CC(CNC(=O)C3CC3(F)F)(C1)C2 (stereo partly drawn) [Example 833, 6-(3-cyanopyrrolo[1,2-b]pyridazin-7-yl)-4-((3-(((R)-2,2-difluorocyclo-propane-1-carboxamido)methyl)bicyclo[1.1.1]pentan-1-yl)amino)-N-((R)-2-fluoro-3-hydroxy-3-methylbutyl)nicotinamide] | 1 |  | EC50 (TNFα; [2]): 192 nM
11 | Cc1noc(C)c1CNc1cc(-c2ccc3cc(C#N)cnn23)ncc1C(=O)NC[C@@H](F)C(C)(C)O [Example 107, (R)-6-(3-cyanopyrrolo[1,2-b]pyridazin-7-yl)-4-(((3,5-dimethylisoxazol-4-yl)methyl)amino)-N-(2-fluoro-3-hydroxy-3-methylbutyl) nicotinamide] | 17 | 961 | 
12 | N#Cc1cnn2c(-c3cc(NC45CCC(O)(CC4)CC5)c(C(=O)NC4(CF)CC4)cn3)ccc2c1 [Example 964, 6-(3-cyanopyrrolo[1,2-b]pyridazin-7-yl)-N-(1-(fluoromethyl)cyclo-propyl)-4-((4-hydroxy-bicyclo[2.2.2]octan-1-yl)amino)nicotinamide] | 1 |  | EC50 (TNFα; [2]): 68 nM
13 | N#Cc1cnn2c(-c3cc(NC45CCC(O)(CC4)CC5)c(C(=O)NCCC(=O)N4CC(F)(F)C4)cn3)ccc2c1 [Example 805, 6-(3-cyanopyrrolo[1,2-b]pyridazin-7-yl)-N-(3-(3,3-difluoroazetidin-1-yl)-3-oxopropyl)-4-((4-hydroxybicyclo[2.2.2]octan-1-yl)amino) nicotinamide] | < 1 |  | EC50 (TNFα; [2]): 129 nM
14 | CC(C)(O)[C@H](F)CNC(=O)c1cnc(-c2ccc3cc(C#N)cnn23)cc1Nc1cnn([C@H]2CCOC2)c1 [Example 237, 6-(3-cyanopyrrolo[1,2-b]pyridazin-7-yl)-N-((R)-2-fluoro-3-hydroxy-3-methylbutyl)-4-((1-((S)-tetrahydrofuran-3-yl)-1H-pyrazol-4-yl)amino) nicotinamide] | 1 | 23 | 
15 | CC(C)(O)[C@H](F)CNC(=O)c1cnc(-c2ccc3cc(C#N)cnn23)cc1NC12CCC(N)(CC1)CC2 [Example 318, (R)-4-((4-amino-bicyclo[2.2.2]octan-1-yl)amino)-6-(3-cyano-pyrrolo[1,2-b]pyridazin-7-yl)-N-(2-fluoro-3-hydroxy-3-methylbutyl)nicotinamide] | < 1 | 23 | 
16 | CC(C)Nc1cc(-c2ccc3cc(C#N)cnn23)ncc1C(=O)N[C@H]1C[C@@](C)(O)C1 [Example 120, 6-(3-cyanopyrrolo[1,2-b]pyridazin-7-yl)-N-((1s,3s)-3-hydroxy-3-methylcyclobutyl)-4-(isopropylamino) nicotinamide] | 8 | 430 | 
17 | CC(C)(O)[C@H](F)CNC(=O)c1cnc(-c2ccc3cc(C#N)cnn23)cc1NC1CC2(CCN2CC(F)(F)F)C1 (stereo partly drawn) [Example 913, 6-(3-cyanopyrrolo[1,2-b]pyridazin-7-yl)-N-((R)-2-fluoro-3-hydroxy-3-methylbutyl)-4-(((4R,6s)-1-(2,2,2-trifluoroethyl)-1-azaspiro[3.3]heptan-6-yl)amino)nicotinamide] | 3 |  | EC50 (TNFα; TNFα by TR-FRET): 226 nM
18 | CC(C)(O)[C@H](F)CNC(=O)c1cnc(-c2ccc3cc(C#N)cnn23)cc1NC12CCC(N3CCOC3=O)(CC1)CC2 [Example 399, 6-(3-cyanopyrrolo[1,2-b]pyridazin-7-yl)-N-((R)-2-fluoro-3-hydroxy-3-methylbutyl)-4-((4-(2-oxooxazolidin-3-yl)bicyclo[2.2.2]octan-1-yl)amino)nicotinamide] |  | 8 | IC50 (IRAK4 enzyme; TR-FRET (HTRF)): < 1 nM
19 | CC(C)(O)[C@H](F)CNC(=O)c1cnc(-c2ccc3cc(C#N)cnn23)cc1NC1Cc2ccncc2C1 (single isomer, unassigned) [Example 677] |  |  | IC50 (IRAK4 enzyme; TR-FRET (HTRF)): < 1 nM; EC50 (TNFα; TNFα content): 54 nM
20 | CC(C)(O)[C@H](F)CNC(=O)c1cnc(-c2ccc3cc(C#N)cnn23)cc1Nc1nccs1 [Example 375, (R)-6-(3-cyanopyrrolo[1,2-b]pyridazin-7-yl)-N-(2-fluoro-3-hydroxy-3-methylbutyl)-4-(thiazol-2-ylamino)nicotinamide] | 1 | 110 | 
21 | CC1(F)CN(C(=O)C23CCC(Nc4cc(-c5ccc6cc(C#N)cnn56)ncc4C(=O)NC[C@@H](F)C(C)(C)O)(CC2)CC3)C1 [Example 394, (R)-6-(3-cyanopyrrolo[1,2-b]pyridazin-7-yl)-N-(2-fluoro-3-hydroxy-3-methylbutyl)-4-((4-(3-fluoro-3-methylazetidine-1-carbonyl)bicyclo[2.2.2]octan-1-yl)amino) nicotinamide] | 1 | 68 | 
22 | CC(=O)NC(C)(C)c1ccc(Nc2cc(-c3ccc4cc(C#N)cnn34)ncc2C(=O)NC[C@@H](F)C(C)(C)O)cc1 [Example 215, (R)-4-((4-(2-acetamido-propan-2-yl)phenyl)amino)-6-(3-cyanopyrrolo[1,2-b]pyridazin-7-yl)-N-(2-fluoro-3-hydroxy-3-methylbutyl)nicotinamide] | 2 | 53 | 
23 | CC(C)(O)[C@H](F)CNC(=O)c1cnc(-c2ccc3cc(C#N)cnn23)cc1N[C@H]1C[C@H](CNC(=O)C2CC2)C1 [Example 534, 6-(3-cyanopyrrolo[1,2-b]pyridazin-7-yl)-4-(((1r,3R)-3-(cyclopropane-carboxamidomethyl)cyclo-butyl)amino)-N-((R)-2-fluoro-3-hydroxy-3-methyl-butyl)nicotinamide] |  | 26 | IC50 (IRAK4 enzyme; TR-FRET (HTRF)): < 1 nM
24 | CC(C)(O)[C@H](F)CNC(=O)c1cnc(-c2ccc3cc(C#N)cnn23)cc1Nc1cnc2c(c1)OCCO2 [Example 850, (R)-6-(3-cyanopyrrolo[1,2-b]pyridazin-7-yl)-4-((2,3-dihydro-[1,4]dioxino[2,3-b]pyridin-7-yl)amino)-N-(2-fluoro-3-hydroxy-3-methylbutyl)nicotinamide] | < 1 |  | EC50 (TNFα; [2]): 10 nM
25 | CNC(=O)[C@H](C)Nc1cc(-c2ccc3cc(C#N)cnn23)ncc1C(=O)NC[C@@H](F)C(C)(C)O [Example 108, 6-(3-cyanopyrrolo[1,2-b]pyridazin-7-yl)-N-((R)-2-fluoro-3-hydroxy-3-methylbutyl)-4-(((S)-1-(methylamino)-1-oxopropan-2-yl)amino) nicotinamide] | 88 | > 10000 | 

From patent US10336762B2 (priority 2017, dated 2019)
